Assay results taken from ChEMBL document CHEMBL5390204, “Persephacin Is a Broad-Spectrum Antifungal Aureobasidin Metabolite That Overcomes Intrinsic Resistance in Aspergillus fumigatus” (J Nat Prod, 2023).
Numbered stars: 1 amine (or outer) side, 2 acyl side, 3 side chain; on linkers, the order of the positions; unused ones are H or OH. Square brackets hold non-standard residues; d marks the D form. Peptide text beside a SMILES is read from it. X1 = CC[C@@H](C)[C@@H](O[*:1])C(=O)[*:2]; NMeVal(β-OH) = CN[C@H](C(=O)O)C(C)(C)O; NMeF = CN[C@@H](Cc1ccccc1)C(=O)O; aIle = CC[C@@H](C)[C@H](N)C(=O)O; NMeV = CN[C@H](C(=O)O)C(C)C

Experiments:
Candida parapsilosis [1] = test: Antifungal activity against Candida parapsilosis ATCC 22019 (Y-12969) assessed as reduction in fungal growth incubated for 48 hrs by microplate reader analysis; assay type: functional; conditions: Lodderomyces parapsilosis
Candida albicans [2] = test: Antifungal activity against Candida albicans ATCC 10231 assessed as reduction in fungal growth incubated for 48 hrs by microplate reader analysis; assay type: functional
Candida albicans [3] = test: Antifungal activity against Candida albicans SC5314 assessed as reduction in fungal growth incubated for 48 hrs by microplate reader analysis; assay type: functional
Pichia kudriavzevii [4] = test: Antifungal activity against Candida krusei ATCC 6258 (Y-7179) assessed as reduction in fungal growth incubated for 48 hrs by microplate reader analysis; assay type: functional
Candida tropicalis [5] = test: Antifungal activity against Candida tropicalis ATCC750 (Y-12699) assessed as reduction in fungal growth incubated for 48 hrs by microplate reader analysis; assay type: functional
Cryptococcus neoformans [6] = test: Antifungal activity against Cryptococcus neoformans H99 assessed as reduction in fungal growth incubated for 48 hrs by microplate reader analysis; assay type: functional
Aspergillus fumigatus [7] = test: Antifungal activity against Aspergillus fumigatus MYA 3627 assessed as reduction in fungal growth incubated for 48 hrs by microplate reader analysis; assay type: functional
Aspergillus fumigatus [8] = test: Antifungal activity against Aspergillus fumigatus NRRL6113 assessed as reduction in fungal growth incubated for 48 hrs by microplate reader analysis; assay type: functional
Aspergillus fumigatus [9] = test: Antifungal activity against Aspergillus fumigatus NRRL5109 assessed as reduction in fungal growth incubated for 48 hrs by microplate reader analysis; assay type: functional
Aspergillus flavus [10] = test: Antifungal activity against Aspergillus flavus NRRL485 assessed as reduction in fungal growth incubated for 48 hrs by microplate reader analysis; assay type: functional
Aspergillus niger [11] = test: Antifungal activity against Aspergillus niger FGSC A732 assessed as reduction in fungal growth incubated for 48 hrs by microplate reader analysis; assay type: functional
Aspergillus terreus [12] = test: Antifungal activity against Aspergillus terreus 191A6 assessed as reduction in fungal growth incubated for 48 hrs by microplate reader analysis; assay type: functional
Curvularia lunata [13] = test: Antifungal activity against Curvularia lunata NRRL6409 assessed as reduction in fungal growth incubated for 48 hrs by microplate reader analysis; assay type: functional
Rhizopus arrhizus [14] = test: Antifungal activity against Rhizopus oryzae FGSC 9543 assessed as reduction in fungal growth incubated for 48 hrs by microplate reader analysis; assay type: functional
Mucor circinelloides [15] = test: Antifungal activity against Mucor circinelloides 235C7 assessed as reduction in fungal growth incubated for 48 hrs by microplate reader analysis; assay type: functional
Fusarium solani [16] = test: Antifungal activity against Fusarium solani 243G2 assessed as reduction in fungal growth incubated for 48 hrs by microplate reader analysis; assay type: functional
Paecilomyces lilacinus [17] = test: Antifungal activity against Paecilomyces lilacinus 165E10 assessed as reduction in fungal growth incubated for 48 hrs by microplate reader analysis; assay type: functional; conditions: Purpureocillium lilacinum
Hamigera insecticola [18] = test: Antifungal activity against Hamigera insecticola NRRL35442 assessed as reduction in fungal growth incubated for 48 hrs by microplate reader analysis; assay type: functional
Candida albicans [19] = test: Antifungal activity against Candida albicans SC5314 assessed as reduction in fungal viability incubated for 48 hrs by microplate reader analysis; assay type: functional
Candida albicans [20] = test: Antifungal activity against Candida albicans ATCC 10231 assessed as reduction in fungal viability incubated for 48 hrs by microplate reader analysis; assay type: functional
Candida parapsilosis [21] = test: Antifungal activity against Candida parapsilosis ATCC 22019 (Y-12969) assessed as reduction in fungal viability incubated for 48 hrs by microplate reader analysis; assay type: functional
Candida tropicalis [22] = test: Antifungal activity against Candida tropicalis ATCC750 (Y-12699) assessed as reduction in fungal viability incubated for 48 hrs by microplate reader analysis; assay type: functional
Pichia kudriavzevii [23] = test: Antifungal activity against Candida krusei ATCC 6258 (Y-7179) assessed as reduction in fungal viability incubated for 48 hrs by microplate reader analysis; assay type: functional
Cryptococcus neoformans [24] = test: Antifungal activity against Cryptococcus neoformans H99 assessed as reduction in fungal viability incubated for 48 hrs by microplate reader analysis; assay type: functional
Aspergillus fumigatus [25] = test: Antifungal activity against Aspergillus fumigatus MYA 3627 assessed as reduction in fungal viability incubated for 48 hrs by microplate reader analysis; assay type: functional
Aspergillus fumigatus [26] = test: Antifungal activity against Aspergillus fumigatus NRRL6113 assessed as reduction in fungal viability incubated for 48 hrs by microplate reader analysis; assay type: functional
Aspergillus fumigatus [27] = test: Antifungal activity against Aspergillus fumigatus NRRL5109 assessed as reduction in fungal viability incubated for 48 hrs by microplate reader analysis; assay type: functional
Aspergillus flavus [28] = test: Antifungal activity against Aspergillus flavus NRRL485 assessed as reduction in fungal viability incubated for 48 hrs by microplate reader analysis; assay type: functional
Aspergillus niger [29] = test: Antifungal activity against Aspergillus niger FGSC A732 assessed as reduction in fungal viability incubated for 48 hrs by microplate reader analysis; assay type: functional
Aspergillus terreus [30] = test: Antifungal activity against Aspergillus terreus 191A6 assessed as reduction in fungal viability incubated for 48 hrs by microplate reader analysis; assay type: functional
Curvularia lunata [31] = test: Antifungal activity against Curvularia lunata NRRL6409 assessed as reduction in fungal viability incubated for 48 hrs by microplate reader analysis; assay type: functional
Rhizopus arrhizus [32] = test: Antifungal activity against Rhizopus oryzae FGSC 9543 assessed as reduction in fungal viability incubated for 48 hrs by microplate reader analysis; assay type: functional
Mucor circinelloides [33] = test: Antifungal activity against Mucor circinelloides 235C7 assessed as reduction in fungal viability incubated for 48 hrs by microplate reader analysis; assay type: functional
Fusarium solani [34] = test: Antifungal activity against Fusarium solani 243G2 assessed as reduction in fungal viability incubated for 48 hrs by microplate reader analysis; assay type: functional
Paecilomyces lilacinus [35] = test: Antifungal activity against Paecilomyces lilacinus 165E10 assessed as reduction in fungal viability incubated for 48 hrs by microplate reader analysis; assay type: functional, Purpureocillium lilacinum
Hamigera insecticola [36] = test: Antifungal activity against Hamigera insecticola NRRL35442 assessed as reduction in fungal viability incubated for 48 hrs by microplate reader analysis; assay type: functional

CC[C@H](C)C[C@H](C)CCCCCCCCC(=O)N[C@H]1C[C@@H](O)[C@@H](NCCN)NC(=O)[C@@H]2[C@@H](O)CCN2C(=O)[C@H]([C@H](O)CCN)NC(=O)[C@H]([C@H](O)[C@@H](O)c2ccc(O)cc2)NC(=O)[C@@H]2C[C@@H](O)CN2C(=O)[C@H]([C@@H](C)O)NC1=O [CASPOFUNGIN]
5 µM: MFC (Candida albicans [2]) | MFC (Curvularia lunata [13]) | MIC80 (Curvularia lunata [13]) | MFC<=99.9 (Candida albicans [20]) | MFC<=99.9 (Curvularia lunata [31])
1.3 µM: MFC (Candida parapsilosis [1]) | MFC<=99.9 (Candida parapsilosis [21])
> 10 µM: MFC (Cryptococcus neoformans [6]) | MIC80 (Cryptococcus neoformans [6]) | MFC (Aspergillus fumigatus [7]) | MFC (Aspergillus fumigatus [8]) | MIC80 (Aspergillus fumigatus [8]) | MFC (Aspergillus fumigatus [9]) | MIC80 (Aspergillus fumigatus [9]) | MFC (Aspergillus flavus [10]) | MIC80 (Aspergillus flavus [10]) | MFC (Aspergillus niger [11]) | MFC (Aspergillus terreus [12]) | MFC (Rhizopus arrhizus [14]) | MIC80 (Rhizopus arrhizus [14]) | MFC (Mucor circinelloides [15]) | MIC80 (Mucor circinelloides [15]) | MFC (Fusarium solani [16]) | MFC (Paecilomyces lilacinus [17]) | MIC80 (Paecilomyces lilacinus [17]) | MFC (Hamigera insecticola [18])
>10 µM: MFC<=99.9 (Cryptococcus neoformans [24]) | MFC<=99.9 (Aspergillus fumigatus [25]) | MFC<=99.9 (Aspergillus fumigatus [26]) | MFC<=99.9 (Aspergillus fumigatus [27]) | MFC<=99.9 (Aspergillus flavus [28]) | MFC<=99.9 (Aspergillus niger [29]) | MFC<=99.9 (Aspergillus terreus [30]) | MFC<=99.9 (Rhizopus arrhizus [32]) | MFC<=99.9 (Mucor circinelloides [33]) | MFC<=99.9 (Fusarium solani [34]) | MFC<=99.9 (Paecilomyces lilacinus [35]) | MFC<=99.9 (Hamigera insecticola [36])
0.3 µM: MIC80 (Candida parapsilosis [1]) | MFC (Pichia kudriavzevii [4]) | MFC<=99.9 (Pichia kudriavzevii [23])
0.63 µM: MFC (Candida albicans [3]) | MFC<=99.9 (Candida albicans [19])
0.1 µM: MIC80 (Aspergillus fumigatus [7]) | MIC80 (Aspergillus niger [11]) | MIC80 (Hamigera insecticola [18])
0.13 µM: MIC80 (Aspergillus terreus [12])
0.2 µM: MIC80 (Pichia kudriavzevii [4]) | MFC (Candida tropicalis [5]) | MIC80 (Fusarium solani [16]) | MFC<=99.9 (Candida tropicalis [22])
0.03 µM: MIC80 (Candida albicans [2]) | MIC80 (Candida albicans [3]) | MIC80 (Candida tropicalis [5])

CC[C@@H](C)[C@@H]1NC(=O)[C@@H]2CCCN2C(=O)[C@H](Cc2ccccc2)N(C)C(=O)[C@H](Cc2ccccc2)NC(=O)[C@H](C(C)C)N(C)C(=O)[C@@H]([C@H](C)CC)OC(=O)[C@H](C(C)(C)O)N(C)C(=O)[C@H](CC(C)C)NC(=O)[C@H](C(C)C)N(C)C1=O [AUREOBASIDIN A] (cyclo(F[NMeF]P[aIle][NMeV]L[NMeVal(β-OH)][X1][NMeV]))
0.6 µM: MIC80 (Candida albicans [2]) | MFC (Candida albicans [3]) | MFC (Candida tropicalis [5]) | MIC80 (Candida tropicalis [5]) | MIC80 (Curvularia lunata [13]) | MIC80 (Hamigera insecticola [18]) | MFC<=99.9 (Candida albicans [19]) | MFC<=99.9 (Candida tropicalis [22])
>10 µM: MFC<=99.9 (Aspergillus fumigatus [25]) | MFC<=99.9 (Aspergillus fumigatus [26]) | MFC<=99.9 (Aspergillus fumigatus [27]) | MFC<=99.9 (Aspergillus flavus [28]) | MFC<=99.9 (Aspergillus niger [29]) | MFC<=99.9 (Aspergillus terreus [30]) | MFC<=99.9 (Rhizopus arrhizus [32]) | MFC<=99.9 (Mucor circinelloides [33]) | MFC<=99.9 (Fusarium solani [34]) | MFC<=99.9 (Paecilomyces lilacinus [35]) | MFC<=99.9 (Hamigera insecticola [36])
0.3 µM: MIC80 (Candida albicans [3])
5 µM: MIC80 (Aspergillus niger [11]) | MIC80 (Fusarium solani [16]) | MIC80 (Paecilomyces lilacinus [17])
> 10 µM: MFC (Aspergillus fumigatus [7]) | MIC80 (Aspergillus fumigatus [7]) | MFC (Aspergillus fumigatus [8]) | MIC80 (Aspergillus fumigatus [8]) | MFC (Aspergillus fumigatus [9]) | MIC80 (Aspergillus fumigatus [9]) | MFC (Aspergillus flavus [10]) | MIC80 (Aspergillus flavus [10]) | MFC (Aspergillus niger [11]) | MFC (Aspergillus terreus [12]) | MFC (Rhizopus arrhizus [14]) | MIC80 (Rhizopus arrhizus [14]) | MFC (Mucor circinelloides [15]) | MIC80 (Mucor circinelloides [15]) | MFC (Fusarium solani [16]) | MFC (Paecilomyces lilacinus [17]) | MFC (Hamigera insecticola [18])
2.5 µM: MFC (Candida parapsilosis [1]) | MFC (Candida albicans [2]) | MFC (Pichia kudriavzevii [4]) | MFC (Cryptococcus neoformans [6]) | MIC80 (Cryptococcus neoformans [6]) | MIC80 (Aspergillus terreus [12]) | MFC<=99.9 (Candida albicans [20]) | MFC<=99.9 (Candida parapsilosis [21]) | MFC<=99.9 (Pichia kudriavzevii [23]) | MFC<=99.9 (Cryptococcus neoformans [24])
1.3 µM: MIC80 (Candida parapsilosis [1]) | MIC80 (Pichia kudriavzevii [4]) | MFC (Curvularia lunata [13]) | MFC<=99.9 (Curvularia lunata [31])
